Experimental data as given in patent US9024055B2, “Acetaminophen conjugates, compositions and methods of use thereof” (Acorda Therapeutics, Inc., priority 2011, dated 2015).
≈ marks a conversion by molar mass, not a printed value. Read-outs that look alike come from different tables or passages of the source.

Experiments:
[1] = cited from earlier work
[2] = Human liver microsome-mediated metabolism (appearance of acetaminophen); details: for Stability in buffer: phosphate buffer at 37° C. (human microsome study)
Procedure: The appearance of acetaminophen (APAP) when Test Articles A, B or C are incubated in human liver microsomes at 37° C. was determined. Loss of APAP-d4 was also monitored.
One lot consisted of ˜150 human mixed gender liver microsomes was purchased from BD Biosciences and stored frozen at −80° C. until use. Compounds were weighed immediately prior use. Test Article A, Test Article B, and Test Article C were weighed on a microbalance and dissolved in water to generate individual stock solutions, each at a concentration of 3.31 mM. Purity was taken into account for each stock solution prepared. APAP-d4 was weighed on a microbalance and dissolved in water to generate a stock solution at a 3.31 mM concentration. Purity was taken into account for the stock preparation.
One part Test Articles A, B or C and one part APAP-d4 was added to three parts water to arrive at an intermediate solution consisting of 662 μM for each compound.
The intermediate solutions prepared above were added to phosphate buffer to arrive at solutions consisting of 8.827 μM of each compound; these were called Substrate solutions. Incubation wells were placed in a wet ice-bath. 750 μL of Substrate solution was added to the appropriate wells. […] 50 μL of Microsomal suspension (20 mg/mL) was added to the appropriate wells. […] Samples were pre-incubated by shaking at 37° C. for 5 minutes. Just prior to starting the reactions in the next step 80 μL aliquots were removed and “killed” with 200 μL of Stop solution; these were the 0 min samples.
Reactions for the remaining samples were started by adding 180 μL Cofactor Solution (5×) to the appropriate wells. […] A 20 μL aliquot of Cofactor Solution (5×) was added to the stopped 0 min samples. […] At 2.5, 5, 10, 30, 60, 120, and 240 minutes, 100 μL of the specified incubation sample was removed and “killed” with 200 μL of Stop Solution. Once all required samples were collected, the plate was centrifuged at 3000 rpm for 10 minutes to pellet the precipitated proteins, and the resultant supernatants were transferred to a fresh 96-well plate for extraction and analysis.
Samples were analyzed for acetaminophen and acetaminophen-d4 concentrations, using a method that employs HPLC and MS/MS detection.

[3] = Rat liver microsome-mediated metabolism (appearance of acetaminophen); format: in vitro ADME; details: for Stability in buffer: phosphate buffer at 37° C. (rat microsome study)
Procedure: Loss of APAP-d4 was also monitored.
Lot 62548 consisting of ˜334 male rat livers and lot 59232 consisting of 10 female rat livers were pooled at a 1:1 ratio just before use. […] Compounds were weighed immediately prior to use. […] Purity was taken into account for the stock preparation.
Incubation wells were placed in a wet ice-bath.

[4] = Stability in PBS at 37° C. (control matrix); format: physicochemical; details: out to four hours
Procedure: (§1) Loss of deuterated acetaminophen (APAP-d4) was also monitored in order to account for compound losses due to the metabolism of acetaminophen. Stability of the test samples in PBS at 37° C. was also determined.
(§2) Five lots of human whole blood (lithium heparin) were purchased from Biochemed and stored refrigerated at +5° C.±3° C. until use. Five lots of SD Rat whole blood (lithium heparin) were purchased from Biochemed and stored refrigerated at +5° C.±3° C. until use. Phosphate-buffered saline was used as a control matrix; it was prepared in-house and stored refrigerated at +5° C.±3° C. until use. Test Articles were weighed immediately prior use.
(§3) Whole blood was removed from storage and allowed to reach room temperature. It was pooled by species at this time. Once the pool reached room temperature, individual 1,980 μL aliquots of the whole blood pool were added to the appropriate tubes on test. Individual 1,980 μL aliquots of blank phosphate buffered saline (PBS) were added to the appropriate tubes on test. All tubes were pre-incubated at 37° C. in a water bath for 5 minutes.
The appropriate intermediate solution was added to each tube on test such that the final concentration of the test article in blood was 6.62 μM. The compound was assayed in triplicate at this concentration. Nominal O-minute samples were aliquoted into a 96-well plate as soon as spiking solution was added. Just prior to a 150 μL sample transfer, 450 μL of acetonitrile:methanol (1:1) was placed in the individual receiving wells in order to stop conversion reactions. The plate containing “stopped” samples was held, covered, in a wet-ice bath until all remaining timepoints were aliquoted. All remaining spiked samples were incubated at 37° C. in a water bath throughout the sampling period. […] Just prior to each transfer, 450 μL, of acetonitrile:methanol (1:1) was placed in the receiving wells for those aliquots in order to stop conversion reactions.

[5] = Hydrolysis and metabolism in rat whole blood at 37° C. (appearance of acetaminophen); format: in vitro ADME, SD Rat; details: rat whole blood vs PBS
Procedure: as §1, §2
(§4) Purity was taken into account for the stock preparation.
as §3
(§5) The appropriate intermediate solution was added to each tube on test such that the final concentration of the test article in blood was 6.62 μM. The compound was assayed in triplicate at this concentration. […]

[6] = Solubility in phosphate-buffered saline (pH 7.2) at room temperature (Example 18); details: pH 7.2, aqueous buffer
[7] = Test article pharmacokinetics in rats after a single oral or intravenous dose; plasma acetaminophen by LC-MS/MS; format: in vivo, Sprague-Dawley rats; details: for Acetaminophen exposure compared with administration of acetaminophen: equivalent acetaminophen doses, oral and intravenous
Procedure: Forty-eight (48) male and female Sprague-Dawley rats were assigned to eight dose groups consisting of three animals per test article per dose route per gender. There were four test articles including acetaminophen, obtained from Sigma-Aldrich, and three acetaminophen conjugates as set forth below.
The animals received a single dose (oral or intravenous) of the test articles via oral gavage or slow intravenous bolus. […] Cage-side observations were performed daily; body weights were recorded prior to each dosing day. Blood samples for pharmacokinetic (PK) analyses were collected at 5 minutes to 8 hr post-dose and acetaminophen plasma concentrations were measured via a LC-MS/MS method.
Non-compartmental pharmacokinetic analysis was conducted for mean plasma acetaminophen concentrations for each test article. Measures of acetaminophen exposure (e.g., AUClast) were typically greater in female animals than male animals for all test articles and for both the oral and intravenous routes of administration.

[8] = Hydrolysis and metabolism in human whole blood at 37° C. (appearance of acetaminophen); format: in vitro ADME; details: human whole blood vs PBS
Procedure: as §1, §2, §4
as §3, with “1980” for “1,980”, “pool” for “pool were added to the appropriate tubes on test. Individual 1,980 μL aliquots of blank phosphate buffered saline (PBS)”
as §5, with “concentration. Nominal O-minute samples were aliquoted into a 96-well plate as soon as spiking solution was added.” for “concentration.”

[9] = Solubility via modified protocol with water bath equilibration (Example 17B), HPLC; format: physicochemical
Procedure: 10-60 mg of Test Article A was weighed into a 1 mL micro centrifuge tube. 100 μL of solvent was added. Samples were mixed using a vortex mixer, and then sonicated for 15 minutes at ambient temperature. In the event of complete dissolution, more solute was added. The resultant suspensions were equilibrated in a water bath for 20 minutes and were centrifuged for 1 minute to yield an off-white saturated solution. The samples were then equilibrated a further 20 minutes in the water bath. 5-10 μL aliquots of the supernatant were diluted into 25 mL of mobile phase using volumetric flasks, prior to analysis by HPLC.
(§6) A HPLC method was developed to quantify Test Article A concentration via external standard analysis, and also monitor and quantify the hydrolysis product APAP. Linearity was determined over the range 20 to 120 μg/mL, and reproducibility was determined at 100 μg/mL.

[10] = Solubility testing, initial protocol (Example 17A), HPLC; format: physicochemical; details: thermodynamic from solid, 18 ° C.
Procedure: 10-60 mg of Test Article A was weighed into a 1 mL micro centrifuge tube. 100 μL of solvent was added. Samples were mixed using a vortex mixer, and then sonicated for 15 minutes at ambient temperature. In the event of complete dissolution, more solute was added. The resultant suspensions were centrifuged to yield an off-white saturated solution. A small aliquot of the supernatant was diluted prior to analysis by HPLC.
as §6

[11] = Goodman and Gillman's 10th ed; cited from earlier work
[12] = cited from earlier work; remark: listed apart in the source
[13] = test system: alkaline phosphatase; details: with alkaline phosphatase; cited from earlier work
[14] = Anesthesia and Analgesia 101, 90-96, 2005
[15] = British Journal of Anaesthesia 94 (5): 642-648, 2005
[16] = with and without cofactor, compared with buffer, 37° C., up to 240 minutes

| Structure (SMILES) | Local tolerance profile [1, 14] | Local tolerance profile [1, 15] | Stability in buffer [2] | Stability in buffer [3] | Stability in PBS [4] | Conversion to APAP in blood incubations versus buffer incubations [5] | solubility [6] | Acetaminophen exposure compared with administration of acetaminophen [7] | Conversion to APAP in blood incubations versus buffer incubations [8] | Water solubility [12] | further results |
| --- | --- | --- | --- | --- | --- | --- | --- | --- | --- | --- | --- |
| CCN(CC)CC(=O)Oc1ccc(NC(C)=O)cc1 [Propacetamol, 4-acetamidophenyl 2-(diethylamino)acetate] | 49% | 90% | – | – | – | – | – | – | – | – | – |
| CC(=O)Nc1ccc(OC(=O)NCCS(=O)(=O)[O-])cc1.[Na+] [Test Article C, Sodium 2-((4-acetamidophenoxy)carbonylamino)ethanesulfonate, reference compound] | – | – | not stable | not stable | not stable | nearly equivalent | 492 mg/mL | substantially lower | nearly equivalent | – | – |
| CC(=O)Nc1ccc(OC(=O)SCCS(=O)(=O)[O-])cc1.[Na+] [Test Article A, Sodium 2-((4-acetamidophenoxy)carbonylthio)ethanesulfonate] | – | – | stable | stable | rather stable | – | – | as great as, or greater than | – | – | Conversion to acetaminophen in human liver microsomes [2, 16]: at a level greater than incubations with buffer; solubility at 40 min ([9]; PEG-400, 19 °C, organic solvent or mixture, thermodynamic from solid): 103 mg/mL; solubility at 40 min ([9]; PEG-400/water (50% water), 19 °C, aqueous with cosolvent or surfactant or cyclodextrin, thermodynamic from solid): 306 mg/mL; solubility at 40 min ([9]; pH 5 buffer, 19 °C, pH 5, aqueous buffer, thermodynamic from solid): 226 mg/mL; solubility ([9]; pH 6.5 Buffer, 19 ° C.): 210 mg/mL; solubility at 40 min ([9]; pH 6.5 buffer, 19 °C, pH 6.5, aqueous buffer, thermodynamic from solid): 198 mg/mL; solubility at 40 min ([9]; pH 6.5 buffer, 35 °C, pH 6.5, aqueous buffer, thermodynamic from solid): 406 mg/mL; solubility at 40 min ([9]; pH 8 buffer, 19 °C, pH 8, aqueous buffer, thermodynamic from solid): 198 mg/mL; solubility at 40 min ([9]; propylene glycol, 19 °C, organic solvent or mixture, thermodynamic from solid): 69 mg/mL; solubility at 40 min ([9]; propylene glycol/water (50% water), 19 °C, aqueous with cosolvent or surfactant or cyclodextrin, thermodynamic from solid): 185 mg/mL; solubility ([9]; water, 0 °C, water, thermodynamic from solid, Water (in Fridge), 0 to 4 ° C., read-out: Solubility): 78 mg/mL; solubility at 40 min ([9]; water, 19 °C, thermodynamic from solid, Water Repeat, modified protocol): 230 mg/mL; Conversion to acetaminophen in rat liver microsomes [3, 16]: at a level much greater than incubations with buffer; solubility at 15 min ([10]; aqueous buffer, PBS): 246 mg/mL; solubility at 15 min ([10]; aqueous with cosolvent or surfactant or cyclodextrin, 50% Water, Ethanol): 199 mg/mL; solubility at 15 min ([10]; organic solvent or mixture, Ethanol): 1 mg/mL; solubility at 15 min ([10]; Water, initial protocol): 280 mg/mL; Time to maximum acetaminophen plasma concentration compared with Test Articles C and B ([7]; oral administration): longer time to maximum acetaminophen plasma concentrations |
| CC(=O)Nc1ccc(OC(=O)NCCS(=O)[O-])cc1.[Na+] [Test Article B, Sodium 2-((4-acetamidophenoxy)carbonylamino)ethanesulfinate] | – | – | not stable | not stable | not stable | nearly equivalent | 424 mg/mL | substantially lower | nearly equivalent | – | – |
| CC(=O)Nc1ccc(O)cc1 [Acetaminophen, N-(4-hydroxyphenyl)acetamide] | 0% | 52% | – | – | – | – | – | – | – | about 1.3 g per 100 mL | Half-life [11]: about 2 hours; solubility ([6]; phosphate-buffered saline): 13.1 mg/mL (≈ 86.7 mM) |
| CC(=O)Nc1ccc(OP(=O)(O)O)cc1 [4-acetamidophenyl dihydrogen phosphate] | – | – | – | – | – | – | – | – | – | 50 g per 100 mL | Time required in vitro to yield acetaminophen from the derivative [13]: about 15 hours |
